Assay results from a melting point compilation (Tetko et al.).

Row | SMILES | melting point [°C]
1 | NC(=S)N1CCS(=O)(=O)CC1 | 233 to 235
2 | Sc1nnnn1-c1cccc(Cl)c1 | 148 to 150
3 | Nc1cccc(C(=O)O)n1 | 310 to 312
4 | CC(C)(C)OC(=O)N1CCN(C(N)=O)C(C(=O)O)C1 (stereo not drawn) | 158 to 160
5 | COC(=O)c1c(C(=O)OC)c(-c2cccc(N)c2)n2c1CCC2 | 166 to 168
6 | Fc1ccc(Nc2nccs2)cc1Cl | 124 to 126
7 | CN(C)C(=O)c1ccc(F)nc1 | 44 to 46
8 | Cc1cccc(NS(=O)(=O)c2ccc(C)c(N)c2)c1 | 95 to 97
9 | CCc1nnc(CO)n1C | 41 to 43
10 | COc1ccc(S(=O)(=O)N2CCCCC2)cc1N | 137 to 139
11 | Cc1nn(Cc2c(Cl)cccc2Cl)c(Cl)c1C(=O)O | 187 to 189
12 | Cc1ccc2c(c1)c(C=O)c(C)n2C | 104 to 106
13 | O=C(O)c1ccc(Oc2ccc(F)cc2)cc1 | 170 to 174
14 | COC(=O)c1ccc(COc2ccccc2C=O)cc1 | 90 to 92
15 | c1ccc(-c2ccc3[nH]ccc3c2)cc1 | 74 to 76
16 | Cc1cc(CO)nc(N2CCCCC2)n1 | 51 to 53
17 | Cc1c(NC(=O)C(C)Sc2nnc(N)s2)c(=O)n(-c2ccccc2)n1C (stereo not drawn) | 143 to 147
18 | Clc1nncc2ccoc12 | 117 to 119
19 | CCCNC(=O)c1ccccc1N | 206 to 208
20 | CC(C)NS(=O)(=O)c1ccc(N)cc1 | 112 to 114
21 | CN(C)S(=O)(=O)c1cccc(N=C=S)c1 | 47 to 49
22 | Cc1ccc(CN(C)c2ccc(C(=O)O)cc2)cc1 | 177 to 179
23 | CC(CC(=O)c1cccc(Br)c1)C(=O)O (stereo not drawn) | 95 to 97
24 | Nc1cccc(N2CCCCC2=O)c1 | 144 to 146

Row | SMILES | melting point [°C]
25 | Cc1onc(CC(=O)O)c1C#N | 59 to 61
26 | CNc1nc(-c2ccccc2[N+](=O)[O-])cs1 | 139 to 141
27 | CC(Cl)C(=O)Nc1ccc(C(F)(F)F)cc1 (stereo not drawn) | 130 to 132
28 | Cn1ccnc1CC#N | 39 to 41
29 | CCN(CC)c1ccc(S(N)(=O)=O)cc1N | 102 to 104
30 | C=CCNc1nc(-c2ccccc2)cs1 | 74 to 76
31 | CC(C)(C)C(=O)COc1ccc([N+](=O)[O-])cc1Cl | 114 to 116
32 | O=C(O)CCC(=O)c1ccc2c(c1)CCCC2 | 122 to 124
33 | O=C(O)c1cnn(-c2ccccn2)c1C(F)(F)F | 156 to 158
34 | ClCc1cc2c(cc1Br)OCCCO2 | 75 to 77
35 | CN(CC(=O)O)S(=O)(=O)c1ccc2ccccc2c1 | 172 to 174
36 | Cc1ccc(-n2nc(C)c(C(=O)O)c2Cl)cc1Cl | 241 to 243
37 | O=C(C1=CNCCC1)c1ccccc1 | 90 to 92
38 | NC(=O)Cn1c(S)nnc1-c1ccco1 | 313 to 315
39 | C#Cc1cccc(OC)n1 | 47 to 49
40 | Fc1ccc(OCc2ccc3ccccc3n2)c(Br)c1 | 124 to 126
41 | O=C(O)C1CC(O)CN1C(=O)C12CC3CC(CC(C3)C1)C2 (stereo not drawn) | 206 to 208
42 | Cc1ccccc1-c1nn(-c2ccccc2)cc1C(=O)O | 177 to 179
43 | O=c1[nH]nc(-c2ccc(Cl)c(Cl)c2)c2ccccc12 | 274 to 276
44 | O=C(O)C1Cc2ccccc2CN1C(=O)c1ccccc1 (stereo not drawn) | 141 to 143
45 | COc1ccc(S(=O)(=O)Cl)cc1C(=O)O | 142 to 144
46 | CC(=O)Nc1ccc(N)c(Cl)c1 | 113 to 115
47 | O=C(O)c1ccc(S(=O)(=O)NCc2ccco2)cc1 | 229 to 231
48 | Brc1ccccc1Oc1cccnn1 | 109 to 111

Row | SMILES | melting point [°C]
49 | CC(=O)c1cnc2nncn2c1C | 192 to 193
50 | CC(Cl)C(=O)NC12CC3CC(CC(C3)C1)C2 (stereo not drawn) | 103 to 105
51 | CNc1ncccc1C(=O)O | 220 to 222
52 | O=C(CCOc1ccccc1)NO | 138 to 140
53 | O=C(O)c1coc(C#Cc2ccccc2)c1 | 183 to 185
54 | CC(CS(C)(=O)=O)NC1CC1 (stereo not drawn) | 39 to 41
55 | CC(C)(CO)Nc1ccc(Br)cn1 | 103 to 105
56 | Cc1nc(NC(=O)CCl)sc1C | 144 to 146
57 | O=C(O)c1ccc2nncn2c1 | 315 to 317
58 | CC(C)(C)Cc1noc2nc(C3CC3)cc(C(=O)O)c12 | 164 to 166
59 | O=C(O)CNC(=O)c1ccoc1 | 165 to 167
60 | CN1C(=O)Cc2cc(C(=O)CCl)ccc21 | 199 to 201
61 | NC(=O)c1c(NC(=O)CCl)sc2c1CCC2 | 181 to 183
62 | CC(C(=O)O)C1CCOCC1 (stereo not drawn) | 39 to 41
63 | CC1CCCCC1(NC(=O)OC(C)(C)C)C(=O)O (stereo not drawn) | 174 to 176
64 | Cc1cc(NC(=O)Nc2cc(C)nn2C(C)(C)C)n(C(C)(C)C)n1 | 235 to 237
65 | O=C(O)Cc1cn2ccsc2n1 | 180 to 184
66 | Cc1sc2ncnc(N3CCC(C(=O)O)CC3)c2c1C | 244 to 246
67 | CS(=O)(=O)CC1(CC(=O)O)CC1 | 89 to 91
68 | O=C(O)COc1cc(F)ccc1F | 151 to 153
69 | Oc1cccc(Oc2ccncc2)c1 | 119 to 121
70 | O=C(CCl)NCc1ccc(-c2ccc(Cl)cc2)o1 | 213 to 218
71 | COC(=O)c1cc2ccccc2c(Cl)n1 | 110 to 112
72 | CCNC(=O)c1cccc(NC(=O)CCl)c1 | 173 to 175

Row | SMILES | melting point [°C]
73 | CC(C)(C)c1cnc(S)o1 | 131 to 133
74 | O=S(=O)(O)c1nc2ccccc2[nH]1 | 116 to 119
75 | O=C(CCn1ccnc1)Nc1cccc(C(=O)O)c1 | 216 to 218
76 | CC(=O)c1cccc(OCCCC(=O)O)c1 | 90 to 92
77 | COc1ccc(C(N)=NO)c(OC)c1 | 129 to 131
78 | CS(=O)(=O)N(c1ccc(N)cc1Br)S(C)(=O)=O | 179 to 181
79 | Nn1cnc2ccc(Br)cc2c1=O | 230 to 232
80 | O=[N+]([O-])c1cnc(Cl)c(Br)c1 | 54 to 58
81 | CCOc1ccc(NC2CCN(CC(F)(F)F)CC2)cc1 | 54 to 56
82 | Cc1nc(-c2ccc(O)cc2)cs1 | 210 to 212
83 | O=C(O)c1cc2cc(Cl)cc(Br)c2o1 | 265 to 267
84 | COC(=O)C(C#N)c1nc2ccccc2nc1Cl (stereo not drawn) | 197 to 199
85 | Nc1c(O)c(Cl)cc(Cl)c1Cl | 119 to 121
86 | O=C(CCl)NCc1ccccc1CS(=O)(=O)N1CCOCC1 | 118 to 120
87 | O=C(O)CN1C(=O)CCC1=O | 91 to 93
88 | O=Cc1nccc2ccccc12 | 51 to 53
89 | Cc1c(CN)cnn1C | 38 to 40
90 | NC(=S)Nc1cccc2ncccc12 | 223 to 225
91 | CN(C)C(=O)C1CCC(C(=O)O)CC1 (stereo not drawn) | 169 to 171
92 | Cc1cc(NC(=O)OCC(F)(F)F)n(C)n1 | 100 to 102
93 | Nc1cc(F)c(-n2cccn2)cc1N | 101 to 103
94 | Cc1ccc(S(=O)(=O)N2CCC(C(=O)O)CC2)cc1C | 190 to 192
95 | Nc1cccc(-n2ccnc2S)c1 | 176 to 178
96 | CCn1cc(N2C(=O)C=CC2=O)cn1 | 92 to 94

Row | SMILES | melting point [°C]
97 | O=C(Nc1ccccc1CO)c1ccco1 | 95 to 97
98 | CC(C)(C)OC(=O)NC1CN(c2ccccc2)C1=O (stereo not drawn) | 167 to 169
99 | CCOC(=O)c1c(CCCO)cnc2c(C#N)cnn12 | 94 to 96
100 | C=CC(=O)Nc1ccc(N(C)C(C)C)c(F)c1 | 81 to 83
101 | O=C(CCl)N1c2ccccc2SCC1c1ccccc1 (stereo not drawn) | 162 to 164
102 | COC(=O)c1ncsc1SCc1ccccc1 | 92 to 94
103 | COc1ccc(S(=O)(=O)NC(CCC(N)=O)C(=O)O)cc1 (stereo not drawn) | 171 to 173
104 | O=C(O)c1ccc(-c2ccccc2)o1 | 153 to 155
105 | N#Cc1ccc(OC(F)F)c(N)c1 | 86 to 88
106 | Nc1n[nH]c2ccccc12 | 152 to 154
107 | O=C(O)c1nn(-c2ccccc2)cc1CCCO | 119 to 121
108 | O=C(O)CCS(=O)(=O)C1CCCC1 | 98 to 100
109 | Cc1ccc2ncc(C(=O)O)c(=O)n2c1 | 259 to 261
110 | COC(=O)C(O)c1cc(Cl)cc(Cl)c1 (stereo not drawn) | 80 to 82
111 | COC(=O)Cn1ccc(N)n1 | 74 to 76
112 | CN(C)c1ccnc(N)c1 | 113 to 115
113 | Cc1n[nH]c(C)n1 | 127 to 131
114 | NC(Cn1ccccc1=O)=NO | 211 to 213
115 | c1ccc2cc(CN3CCNCC3)ccc2c1 | 53 to 55
116 | Cc1ccc(C(=O)Nc2ccc(O)cc2)cc1 | 208 to 210
117 | CC(C)(N)CN1CCN(c2ccccc2)CC1 | 84 to 86
118 | Cc1nn(C)c(C)c1S(N)(=O)=O | 213 to 215
119 | Cn1cc(S(N)(=O)=O)cn1 | 121 to 123
120 | CN1C(=O)C(C#N)=C(N)C12CCCC2 | 290 to 292

Row | SMILES | melting point [°C]
121 | O=C(O)C1CC1c1c(F)cccc1Cl (stereo not drawn) | 109 to 111
122 | NS(=O)(=O)C1CCCOC1 (stereo not drawn) | 96 to 98
123 | N#Cc1cccc(-n2cccn2)n1 | 116 to 118
124 | Cc1ccc(-c2noc(CC#N)n2)cc1 | 56 to 58
125 | O=C(Cn1cnnn1)N1CCNCC1 | 143 to 145
126 | Cc1ccc2c(CC(=O)O)coc2c1C | 148 to 152
127 | O=Cc1coc2ccc([N+](=O)[O-])cc2c1=O | 157 to 161
128 | O=C(O)c1sc2cc(Br)ccc2c1Cl | 286 to 288
129 | O=C(O)CCCCNC(=O)OCc1ccccc1 | 104 to 106
130 | CCOc1cc(N)ccc1OC | 77 to 79
131 | O=C(O)c1ccc(CNC2=NS(=O)(=O)c3ccccc32)cc1 | 303 to 305
132 | Cc1nc(-c2cccc(Br)c2)ccc1C(=O)O | 181 to 183
133 | Nc1n[nH]c2nc3ccccc3cc12 | 314 to 316
134 | Cc1cc(=O)[nH]c(SCC(=O)O)c1C#N | 198 to 200
135 | CN(C)C(C)(C(=O)O)c1ccc(Cl)cc1 (stereo not drawn) | 239 to 241
136 | Nc1cc(S(=O)(=O)N2CCOCC2)ccc1O | 199 to 201
137 | CCOC(=O)c1sc(N)c(C#N)c1CBr | 206 to 208
138 | Cc1ccc(CC(=O)NO)cc1 | 155 to 157
139 | O=C1N[C@H](C(=O)O)CS1 | 166 to 170
140 | CC(C)(C)NS(=O)(=O)CC(=O)O | 93 to 95
141 | Nc1ccc(S(=O)(=O)Nc2ccc(F)cc2)cc1 | 162 to 164
142 | Cc1ccc(-c2nc(C)c(C(=O)O)s2)c(C)c1 | 218 to 220
143 | Nc1ncc(Cc2ccc(Br)cc2)s1 | 129 to 131
